# Experimental data from patent US20240148819A1, “COMPOUNDS FOR USE IN THE TREATMENT OF SINUSITIS, PNEUMONIA OR OTITIS” (PHARMA HOLDINGS AS, priority 2021, published 2024).
# Several values for one entry are separate records, joined by “and”; a condition that tells them apart may be missing. Equal entries are not always repeated. Where two headings read alike, the source gives them in different places.
# What was measured:
# Vero cells = conditions: 1% LTX-109 (w/v), 1 h, after filtration, no virus
# Description: (§6) A parallel test where the same procedure was carried out in the absence of virus was included to determine any residual cytotoxic effect of the formulation on the assay cells.
# Rhinovirus 60, 2268-CV37 [1] = test: TCID50 assay after 1 h incubation of virus with 3% LTX-109, stopped by dilution (Example 7); format: cell-based
# [2] = test system: Respiratory Syncytial Virus (RSV); test: TCID50 assay after 1 h incubation of virus with LTX-109 (Example 2); format: cell-based; conditions: for Percentage: decrease in RSV infectivity, compared to PBS control
# Description: To test whether 1% LTX-109 (w/v) and 0.1% LTX-109 (w/v) have antiviral activity against RSV, 1×10^5 infectious units of RSV (40 μl) were incubated with four volumes of 1% LTX-109 or 0.1% LTX-109 dissolved in PBS (160 μl) or a PBS (Phosphate-buffered saline) control. The experiment was performed in triplicates.
# After 1 hour, the incubation was stopped by adding an excess of cold media, and the formulation was physically separated from the virus through a filter to reduce cytotoxicity on the assay cells. Some cloudiness in the preparation was observed, particularly for the 1% formulation, but no precipitation. Infectious virus was quantified through a serial dilution (a series of ten-fold dilutions) on monolayers of Hep2 cells in microtitre plates (Hep2 cells are mammalian cells capable of displaying a cytopathic effect (CPE) upon viral infection). The starting solution for the serial dilution (i.e. the neat (or undiluted) solution) was obtained by re-suspending the virus that was separated via the filtration step in 1 ml of media. For each dilution of the virus in the dilution series, eight wells of the microtitre plate were tested (i.e. each dilution of virus was applied to eight separate wells, each well containing a Hep2 cell monolayer). Appropriate controls were also performed. […] The TCID50 (TCID50/ml) assay (Tissue Culture Infectious Dose 50 assay) is a type of endpoint dilution assay that is well known in the art and routinely used to quantitatively measure virus titres. TCID50/ml provides a measure of infectious units of virus/ml. “/ml” refers to/ml of the starting solution (i.e. neat/undiluted solution) mentioned above.
# Rhinovirus 60, 2268-CV37 [3] = test: TCID50 assay after 1 h incubation of virus with 1% LTX-109 (Example 6); format: cell-based
# Haemophilus influenzae = test system: Haemophilus influenzae
# Description: (§1) Bacterial and fungal isolates used in this study were from various sources worldwide stored at GR Micro Ltd. and maintained, with minimal sub-culture, deep frozen at −70° C. as a dense suspension in a high protein matrix of undiluted horse serum.
# (§2) Minimum inhibitory concentration (MIC) of LTX-109 was determined using the following microbroth dilution methods for antimicrobial susceptibility testing published by the Clinical and Laboratory Standards Institute (CLSI, formerly NCCLS): • M7-A6 Vol. 23 No. 2 Jan. 2003 Methods for Dilution Antimicrobial Susceptibility Tests for Bacteria that Grow Aerobically; Approved Standard-Sixth Edition. National Committee for Clinical Laboratory Standards. • M100-S15 Vol. 25 No 1. January 2005 Performance Standards for Antimicrobial Susceptibility Testing; Fifteenth Informational Supplement. Clinical and Laboratory Standards Institute • M11-A6 Vol. 24 No. 2 Methods for Antimicrobial Susceptibility Testing of Anaerobic Bacteria; Approved Standard-Sixth Edition. National Committee for Clinical Laboratory Standards. • M27-A2 Vol. 22 No. 15 Reference Method for Broth Dilution Antifungal Susceptibility Testing of Yeasts; Approved Standard-Second Edition. National Committee for Clinical Laboratory Standards. • M38-A Vol. 22 No. 16 Reference Method for Broth Dilution Antifungal Susceptibility Testing of Filamentous Fungi; Approved Standard. National Committee for Clinical Laboratory Standards.
# (§3) MIC estimations were performed using wet plates, containing the LTX-109, prepared at GR Micro Ltd.
# (§4) Following normal practice all the plates containing Mueller-Hinton broth were prepared in advance, frozen at −70° C. on the day of preparation and defrosted on the day of use. Fungal, Haemophilus and anaerobic MIC determinations were all performed in plates prepared on the same day.
# Mycoplasma pneumoniae = test system: Mycoplasma pneumoniae
# Description: Two library strains of Mycoplasma pneumoniae were used. These strains were stored at GR Micro Ltd. and maintained, with minimal sub-culture, deep frozen at −70° C. as a dense suspension in a high protein matrix of undiluted horse serum.
# MIC determination was carried out using a broth microdilution method in Mycoplasma Broth Base (Oxoid Ltd, Hampshire, UK), prepared according to the manufacturer's instructions.
# Streptococcus pneumoniae = test system: Streptococcus pneumoniae
# Description: as §1, §2, §3
# (§5) Cation-adjusted Mueller-Hinton broth (Oxoid Ltd., Basingstoke, UK and Trek Diagnostic Systems Ltd., East Grinstead, UK) (supplemented with 5% laked horse blood for Streptococcus spp.) was used for aerobic bacteria, with an initial inoculum of approximately 10^5 colony-forming units (CFU)/mL.
# as §4
# Moraxella catarrhalis = test system: Moraxella catarrhalis
# Description: as §1, §2, §3, §5, §4
# Streptococcus pyogenes = Streptococcus pyogenes - macrolide (MLS) resistant clinical isolate
# Description: as §1, §2, §3, §5, §4
# HeLa cells = test: Parallel test without virus for residual cytotoxicity (Example 7); format: cell-based, human; conditions: 3% LTX-109 (w/v) or 0.25% SDS, after dilution (50 μl in 5 ml), no virus
# Description: as §6
# [4] = test system: SARS-CoV-2 Isolate England02/2020; format: cell-based
# Hep2 cells = conditions: 1 h, after filtration, no virus
# Description: as §6
compound,measurement,setting,value
CC(C)(C)c1cc(C(C)(C)C)c2[nH]c(C(C)(C)C)c(CC(NC(=O)C(N)CCCNC(=N)N)C(=O)NC(CCCNC(=N)N)C(=O)NCCc3ccccc3)c2c1 (stereo not shown) [LTX-109],With Filtration (cytotoxicity),Vero cells,Up to 10^−1
same,Log decrease,"Rhinovirus 60, 2268-CV37 [1]; Rhinovirus, 3% LTX-109 or 0.25% SDS, 1 hour, compared to PBS control",1.9 log
same,Percentage,"Rhinovirus 60, 2268-CV37 [1]; decrease in Rhinovirus infectivity, 3% LTX-109 or 0.25% SDS, 1 hour, compared to PBS control",98.87%
same,Log,"Rhinovirus 60, 2268-CV37 [1]; log of Rhinovirus titre after 1 hour with 3% LTX-109 or 0.25% SDS",2.3
same,Percentage,"[2]; 0.1% LTX-109, 1 h",99.9% and 99.97%
same,Percentage,"[2]; 1% LTX-109, 1 h",99.9% and 99.949%
same,Log,[2]; log of RSV titre after 1 h with 0.1% LTX-109,1.78
same,Log,[2]; log of RSV titre after 1 h with 1% LTX-109,2.20
same,Log decrease,"Rhinovirus 60, 2268-CV37 [3]; Rhinovirus, 1% LTX-109 or 0.25% SDS, 1 hour, compared to PBS control",1.9 log
same,Percentage,"Rhinovirus 60, 2268-CV37 [3]; decrease in Rhinovirus infectivity, 1% LTX-109 or 0.25% SDS, 1 hour, compared to PBS control",98.89%
same,Log,"Rhinovirus 60, 2268-CV37 [3]; log of Rhinovirus titre after 1 hour with 1% LTX-109 or 0.25% SDS",3.7
same,MIC,Haemophilus influenzae; Haemophilus influenzae - β-lactamase negative clinical isolate,8 µg/mL
same,MIC,"Haemophilus influenzae; Haemophilus influenzae - β-lactamase negative, ampicillin resistant",8 µg/mL
same,MIC,Haemophilus influenzae; Haemophilus influenzae - β-lactamase positive clinical isolate,8 µg/mL
same,MIC,Mycoplasma pneumoniae; one of the library strains of Mycoplasma pneumoniae,32 µg/mL
same,MIC,Mycoplasma pneumoniae; the other of the library strains of Mycoplasma pneumoniae,16 µg/mL
same,MIC,Streptococcus pneumoniae; Streptococcus pneumoniae - multi-drug resistant clinical isolate,32 µg/mL
same,MIC,Streptococcus pneumoniae; Streptococcus pneumoniae - penicillin intermediate clinical isolate,32 µg/mL
same,MIC,Streptococcus pneumoniae; Streptococcus pneumoniae - penicillin resistant clinical isolate,16 µg/mL
same,MIC,Streptococcus pneumoniae; Streptococcus pneumoniae - penicillin susceptible clinical isolate,32 µg/mL
same,MIC,Moraxella catarrhalis; Moraxella catarrhalis - reduced fluoroquinolone susceptibility clinical isolate,8 µg/mL
same,MIC,Moraxella catarrhalis; Moraxella catarrhalis - β-lactamase positive clinical isolate,4 µg/mL
same,MIC,Streptococcus pyogenes,16 µg/mL
same,Cytotoxicity,HeLa cells,Neat
same,Log,[4],2.28
same,Percentage,[4],99.99% and 99.995%
same,With Filtration (cytotoxicity),Hep2 cells; 0.1% LTX-109 (w/v),No cytotoxicity
same,With Filtration (cytotoxicity),Hep2 cells; 1% LTX-109 (w/v),Up to 10^−1
